Source: paper PMC5573416, “Inhibiting mycobacterial tryptophan synthase by targeting the inter-subunit interface” (Scientific Reports, 2017)

Columns and labels:
[1] = biological target: T1, Mtb tryptophan synthase (TrpA and TrpB-F188L) (Mycobacterium tuberculosis, UniProt P9WFX9+P9WFY1, F199L); assay type: biochemical
[2] = biological target: T1, Mtb tryptophan synthase (TrpA and TrpB-F188L); assay type: biochemical; remark: listed apart in the source

Compound | L-tryptophan produced in presence of inhibitor (GF-HPLC) [1] | L-tryptophan synthesis in presence of inhibitor (TLC) [2]
CNS(=O)(=O)c1ccc2c(c1)CCN2C(=O)c1ccc(C)s1 [Compound 3] | L-tryptophan was produced | –
CNS(=O)(=O)c1ccc2c(c1)CCN2C(=O)c1ccccc1F [Compound 2] | – | relatively the same amount of tryptophan
